{
  "source": "the supplement of paper PMC6723410",
  "key": {"[1]": {"test_system": "GUMC-403", "test": "viability at highest tested concentration (max response) relative to DMSO (% of DMSO control); higher = less cytotoxic", "conditions": "library / dose series: MIPE library, 11-point 1:3 dilution; top concentration 46.1 µM; 48 h", "how_it_was_run": "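GUMC-403 papilloma cells, derived from a patient and expanded by conditional reprogramming, were dispensed at 700/well into 1536-well plates in 5 μL F + Y medium. A pin tool delivered 23 nL of each compound across an 11-point 1:3 dilution series for 48 h. CellTiter-Glo luminescence, read on a ViewLux, was normalised so that vehicle wells equalled 100% and empty wells 0%. Values report viability at the highest tested concentration relative to vehicle control.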"}, "[2]": {"test_system": "GUMC-403", "test": "AC50 for reduction of cell viability; higher = less potent", "conditions": "48 h"}, "[3]": {"conditions": "library / dose series: MIPE library, 11-point 1:3 dilution"}},
  "data": [
    {"smiles": "CCN(CC)C(=S)SSC(=S)N(CC)CC", "values": [
      {"measurement": "viability", "setting": "[1]", "result": 58.9},
      {"measurement": "AC50 for reduction of cell viability", "setting": "[2]; library / dose series: NPC library, 8-point 1:5 dilution", "result": 24800, "unit": "nM"}
    ]},
    {"smiles": "CC(C)C[C@H](NC(=O)CNC(=O)c1cc(Cl)ccc1Cl)B(O)O", "values": [
      {"measurement": "viability", "setting": "[1]", "result": 14.7},
      {"measurement": "AC50 for reduction of cell viability", "setting": "[2]; [3]", "result": 3320, "unit": "nM"}
    ]},
    {"smiles": "CC(C)C[C@H](NC(=O)CNC(=O)c1cc(Cl)ccc1Cl)B1OC(=O)CC(CC(=O)O)(C(=O)O)O1", "note": "(stereo partly specified)", "values": [
      {"measurement": "viability", "setting": "[1]", "result": 38.8},
      {"measurement": "AC50 for reduction of cell viability", "setting": "[2]; [3]", "result": 2350, "unit": "nM"}
    ]},
    {"smiles": "CO[C@H]1/C=C/O[C@@]2(C)Oc3c(C)c(O)c4c(O)c(c(/C=N\\N5CCN(C6CCCC6)CC5)c(O)c4c3C2=O)NC(=O)/C(C)=C\\C=C\\[C@H](C)[C@H](O)[C@@H](C)[C@@H](O)[C@@H](C)[C@H](OC(C)=O)[C@@H]1C", "values": [
      {"measurement": "viability", "setting": "[1]", "result": 56},
      {"measurement": "AC50 for reduction of cell viability", "setting": "[2]; [3]", "result": 296, "unit": "nM"}
    ]},
    {"smiles": "C=CC(=O)Nc1cccc(Oc2nc(Nc3ccc(N4CCN(C)CC4)cc3OC)ncc2Cl)c1", "values": [
      {"measurement": "viability", "setting": "[1]", "result": 65.2},
      {"measurement": "AC50 for reduction of cell viability", "setting": "[2]; [3]", "result": 590, "unit": "nM"}
    ]},
    {"smiles": "COc1ccc(-c2ccc3ncc4c(c3c2)n(-c2ccc(N3CCNCC3)c(C(F)(F)F)c2)c(=O)n4C)cn1", "values": [
      {"measurement": "viability", "setting": "[1]", "result": 3.16},
      {"measurement": "AC50 for reduction of cell viability", "setting": "[2]; [3]", "result": 8330, "unit": "nM"}
    ]},
    {"smiles": "CC(C)C1=C(O)C=C(O)C(=C1)C/2=N/NC(=O)N2C3=CC4=C(C=C3)[N](C)C=C4", "values": [
      {"measurement": "viability", "setting": "[1]", "result": 61.4},
      {"measurement": "AC50 for reduction of cell viability", "setting": "[2]; [3]", "result": 148, "unit": "nM"}
    ]},
    {"smiles": "CCC[C@@H](C=O)NC(=O)[C@H](CC(C)C)NC(=O)[C@H](CC(C)C)NC(=O)OCc1ccccc1", "values": [
      {"measurement": "viability", "setting": "[1]", "result": 7.94},
      {"measurement": "AC50 for reduction of cell viability", "setting": "[2]; [3]", "result": 14800, "unit": "nM"}
    ]},
    {"smiles": "C=CC(=O)Nc1cccc(Nc2nc(NC3CCC(N(C)C)CC3)nc3c2ncn3C(C)C)c1", "note": "(stereo unspecified)", "values": [
      {"measurement": "viability", "setting": "[1]", "result": 8.03},
      {"measurement": "AC50 for reduction of cell viability", "setting": "[2]; [3]", "result": 2960, "unit": "nM"}
    ]},
    {"smiles": "CC(C)N[C@@H]1CCn2c(=O)[nH]c3cccc(c32)[C@H]1O", "values": [
      {"measurement": "viability", "setting": "[1]", "result": 30.4},
      {"measurement": "AC50 for reduction of cell viability", "setting": "[2]; [3]", "result": 9350, "unit": "nM"}
    ]},
    {"smiles": "CC(NCc1ccc2c(c1)[nH]/c(=N\\C(=O)c1ccc(-c3cn[nH]c3)s1)n2CC(C)(C)O)C(C)(C)C", "note": "(stereo unspecified)", "values": [
      {"measurement": "viability", "setting": "[1]", "result": 6.2},
      {"measurement": "AC50 for reduction of cell viability", "setting": "[2]; [3]", "result": 935, "unit": "nM"}
    ]},
    {"smiles": "N[S+](=O)([O-])c1cccc2c1C(=O)c1cccc(O)c1C2=O", "values": [
      {"measurement": "viability", "setting": "[1]", "result": 4.44},
      {"measurement": "AC50 for reduction of cell viability", "setting": "[2]; [3]", "result": 13200, "unit": "nM"}
    ]},
    {"smiles": "CC#C[C@]1(O)CC[C@H]2[C@@H]/3CCC/4=C/C(=O)CCC4=C3[C@H](C[C@]12C)C5=CC=C(C=C5)N(C)C", "values": [
      {"measurement": "viability", "setting": "[1]", "result": 59},
      {"measurement": "AC50 for reduction of cell viability", "setting": "[2]; [3]", "result": 833, "unit": "nM"}
    ]},
    {"smiles": "CN1CC[C@H]([C@@H](O)C1)C2=C(O)C=C(O)C3=C2O\\C(=C/C3=O)C4=CC=CC=C4Cl", "values": [
      {"measurement": "viability", "setting": "[1]", "result": 61.2},
      {"measurement": "AC50 for reduction of cell viability", "setting": "[2]; [3]", "result": 132, "unit": "nM"}
    ]},
    {"smiles": "CNC(=O)[C@H](Cc1ccccc1)NC(=O)[C@H](CC(C)C)[C@H](CSc1cccs1)C(=O)NO", "values": [
      {"measurement": "viability", "setting": "[1]", "result": 68.4},
      {"measurement": "AC50 for reduction of cell viability", "setting": "[2]; [3]", "result": 5260, "unit": "nM"}
    ]},
    {"smiles": "COc1cc2ncn(-c3cc(OCc4ccccc4C(F)(F)F)c(C(N)=O)s3)c2cc1OC", "values": [
      {"measurement": "viability", "setting": "[1]", "result": 18.8},
      {"measurement": "AC50 for reduction of cell viability", "setting": "[2]; [3]", "result": 23500, "unit": "nM"}
    ]},
    {"smiles": "COC(=O)/C=C/C(=O)OC", "values": [
      {"measurement": "viability", "setting": "[1]", "result": 55.3},
      {"measurement": "AC50 for reduction of cell viability", "setting": "[2]; [3]", "result": 3720, "unit": "nM"}
    ]},
    {"smiles": "OCCCNc1cc(-c2ccnc(Nc3cccc(Cl)c3)n2)ccn1", "values": [
      {"measurement": "viability", "setting": "[1]", "result": 63.6},
      {"measurement": "AC50 for reduction of cell viability", "setting": "[2]; [3]", "result": 105, "unit": "nM"}
    ]},
    {"smiles": "CCc1c(O)cc(O)c(C(=O)c2ccc(OCCN3CCOCC3)c(OC)c2)c1CC(=O)N(CCOC)CCOC", "values": [
      {"measurement": "viability", "setting": "[1]", "result": 56.6},
      {"measurement": "AC50 for reduction of cell viability", "setting": "[2]; [3]", "result": 2090, "unit": "nM"}
    ]},
    {"smiles": "CN[C@@H]1C[C@H]2O[C@@](C)([C@@H]1OC)n1c3ccccc3c3c4c(c5c6ccccc6n2c5c31)C(=O)N[C@H]4O", "values": [
      {"measurement": "viability", "setting": "[1]", "result": 8.86},
      {"measurement": "AC50 for reduction of cell viability", "setting": "[2]; [3]", "result": 1480, "unit": "nM"}
    ]},
    {"smiles": "O=C(NCCCNc1nc(Nc2cccc(NC(=O)N3CCCC3)c2)ncc1I)c1cccs1", "values": [
      {"measurement": "viability", "setting": "[1]", "result": 3.39},
      {"measurement": "AC50 for reduction of cell viability", "setting": "[2]; [3]", "result": 10500, "unit": "nM"}
    ]},
    {"smiles": "Nc1cccc(-c2cc3c(Oc4cccc(O)c4)ncnc3[nH]2)c1", "values": [
      {"measurement": "viability", "setting": "[1]", "result": 58},
      {"measurement": "AC50 for reduction of cell viability", "setting": "[2]; [3]", "result": 8330, "unit": "nM"}
    ]},
    {"smiles": "CC(=O)Nc1ccc([C@H](C)C(=O)Nc2ncc(C(C)C)s2)cc1", "values": [
      {"measurement": "viability", "setting": "[1]", "result": 15.9},
      {"measurement": "AC50 for reduction of cell viability", "setting": "[2]; [3]", "result": 1660, "unit": "nM"}
    ]},
    {"smiles": "CC1(COc2ccc3c(c2)ncn3-c2ccc3cccc(N4CCC(N)CC4)c3n2)COC1", "values": [
      {"measurement": "viability", "setting": "[1]", "result": 51.9},
      {"measurement": "AC50 for reduction of cell viability", "setting": "[2]; [3]", "result": 10.5, "unit": "nM"}
    ]},
    {"smiles": "COc1cccc2c1C(=O)c1c(O)c3c(c(O)c1C2=O)C[C@@](O)(C(=O)CO)C[C@@H]3O[C@H]1C[C@H](N)[C@@H](O)[C@H](C)O1", "values": [
      {"measurement": "viability", "setting": "[1]", "result": 48.5},
      {"measurement": "AC50 for reduction of cell viability", "setting": "[2]; [3]", "result": 2090, "unit": "nM"}
    ]},
    {"smiles": "CCN1CCN(Cc2ccc(-c3cc4c(N[C@H](C)c5ccccc5)ncnc4[nH]3)cc2)CC1", "values": [
      {"measurement": "viability", "setting": "[1]", "result": 69},
      {"measurement": "AC50 for reduction of cell viability", "setting": "[2]; [3]", "result": 372, "unit": "nM"}
    ]},
    {"smiles": "CCCCOc1c(C(=O)c2c(F)cc(C)cc2F)cnc2[nH]ncc12", "values": [
      {"measurement": "viability", "setting": "[1]", "result": 75.8},
      {"measurement": "AC50 for reduction of cell viability", "setting": "[2]; [3]", "result": 8330, "unit": "nM"}
    ]},
    {"smiles": "N#CC(=C(/N)Sc1ccccc1N)/C(C#N)=C(\\N)Sc1ccccc1N", "values": [
      {"measurement": "viability", "setting": "[1]", "result": 50.4},
      {"measurement": "AC50 for reduction of cell viability", "setting": "[2]; [3]", "result": 4690, "unit": "nM"}
    ]}
  ]
}
